Assay results reported in paper PMC9200282, “GPR15L is an epithelial inflammation-derived pruritogen” (Science Advances, 2022).

Assays:
[1] = tested on: mast cell; settings: through MRGPRs; cited from earlier work
From the text: In particular, MRGPRX2 and the mouse ortholog Mrgprb2 are receptors for many cationic molecules ([22]–[25]). Activation of MRGPRs on mast cells can cause immunoglobulin E–independent allergic reactions (pseudo-allergy) including extravasation, itch, and pain ([22], [26]). Some human and tick β-defensins can activate not only MRGPRX2/Mrgprb2 but also MRGPRX1/Mrgprc11, which are expressed on sensory neurons ([27]).

[2] = tested on: DRG neurons; assay: Calcium imaging of dissociated DRG neurons expressing GCaMP6f; type: cell-based, mouse; settings: chloroquine 100 μM, histamine 100 μM, capsaicin 10 μM, sequential challenge
Description: Primary cultures of DRG neurons were generated from C57BL/6N mice as described previously ([65]). […] Imaging was performed with an ORCA-Flash 4.0 […] digital complementary metal-oxide semiconductor camera (Hamamatsu, Bridgewater, NJ) at 1 Hz. Fluorescence intensity in hand-drawn regions of interest was extracted using HCImage (Hamamatsu) and plotted against time. The R package […] was used to generate a heatmap plot to visualize fluorescence signals in all the neurons.

[3] = tested on: Mrgpra3 DRG neurons; assay: Whole-cell patch clamp of Mrgpra3-Cre-eGFP DRG neurons; type: cell-based, mouse; settings: chloroquine 100 μM, pH 7.4
Description: Whole-cell patch clamp was performed on Mrgrpa3-Cre-eGFP neurons as previously described ([67]). Briefly, DRG neurons collected from Mrgpra3-Cre-eGFP mice were cultured on coverslips for 48 to 72 hours. Whole-cell current clamp recordings were performed on dissociated DRG neurons expressing eGFP. Data were recorded with an Axon 700B amplifier and pCLAMP 11 software (Molecular Devices, Sunnyvale). Pipette electrodes were pulled with P-97 microelectrode puller (Sutter Instrument) from borosilicate glass (World Precision Instruments Inc.) with resistances of 2 to 4 megohms. The extracellular solution contained 140 mM NaCl, 4 mM KCl, 2 mM CaCl2, 1 mM MgCl2, 10 mM Hepes, and 10 mM glucose with a pH of 7.4 and an osmolality of 300 mosm/kg. The pipette solution contained 140 mM KCl, 1 mM MgCl2, 1 mM EGTA, 10 mM Hepes, 3 mM adenosine 5′-triphosphate, and 0.5 mM guanosine 5′-triphosphate with a pH of 7.4 and an osmolality of 300 mosm/kg.

Row | Molecule | mast cell degranulation [1] | response of Gpr15l-responsive DRG neurons to other pruritogens/capsaicin [2] | neurons firing action potentials [3]
1 | LL-37: cationic antimicrobial peptide, cathelicidin (LLGDFFRKSKEKIGKEFKRIVQRIKDFLRNLVPRTES; Antibacterial peptide LL-37; UniProt P49913 134-170, looked up) | can cause mast cell degranulation | – | –
2 | NCCc1c[nH]cn1 [histamine] | – | The majority of these neurons also responded | –
3 | CCN(CC)CCCC(C)Nc1ccnc2cc(Cl)ccc12 (centres unmarked) [chloroquine] | – | The majority of these neurons also responded | 7/8
4 | COc1cc(CNC(=O)CCCC/C=C/C(C)C)ccc1O [capsaicin] | – | The majority of these neurons also responded | –
